The numbers were not newly measured in patent US20050182074A1 (Pfizer Inc., priority 2004, published 2005), which cites them from elsewhere.

Structures are written as SMILES.

The conditions of data set [1]: AIDS patient on antiretroviral drugs, voriconazole added.
The conditions of data set [2]: steady state pharmacokinetics of voriconazole.

Take `CC(C)CN(C[C@@H](O)[C@H](Cc1ccccc1)NC(=O)O[C@H]1CCOC1)S(=O)(=O)c1ccc(N)cc1` [amprenavir]: the “plasma concentration on addition of voriconazole” value in data set [1] is “elevated plasma concentrations”.

Regarding `Cc1ccnc2c1NC(=O)c1cccnc1N2C1CC1` [nevirapine], in data set [1], the “plasma concentration on addition of voriconazole” value was “elevated plasma concentrations”.

Take `COc1ccc2[nH]c([S+]([O-])Cc3ncc(C)c(OC)c3C)nc2c1` (stereo not drawn) [omeprazole]: the “effect on voriconazole exposure” value in data set [2] is “no clinically relevant effect”.
